# Patent US20260306527A1, “PRMT INHIBITOR COMPOUNDS AND THE USES THEREOF” (Purdue Research Foundation, priority 2023, published 2026)
# Experiments:
# Assay type in all cases: biochemical
# PRMT3 = PRMT3 (Homo sapiens, UniProt O60678); assay: SAHH-coupled fluorescence assay, inhibition of PRMT3; design: PRMT3 (residues 211-531) was cloned into the pET28a-MHL expression vector; tag of the pET28a-MHL vector (not described); made in house; host or cells: Escherichia coli BL21(DE3)
# Experimental: (§1) A fluorescence-based SAHH-coupled assay was applied to study the inhibition activity of all synthesized compounds on PRMT 1 and 3.
# (§2) The PRMT3 methylation assay was performed under the following conditions in a final well volume of 100 μL: 20 mM Tris (pH=7.5), 0.01% Triton X-100, 5 μM SAHH, 0.25 μM PRMT3, 30 μM AdoMet, and 15 μM ThioGlo4. […] Fluorescence was monitored on a BMG CLARIOstar microplate reader with excitation 380 nm and emission 505 nm. Data were processed by using GraphPad Prism software 8.0. All experiments were performed in duplicate.
# (§3) Next, the inhibition activity of the library was investigated for five PRMT members from type I PRMTs.
# as §2, with “8.0.” for “8.0. All experiments were performed in duplicate.”
# PRMT1 = biological target: T1, PRMT1 (Homo sapiens, UniProt Q99873); assay: SAHH-coupled fluorescence assay, inhibition of PRMT1; conditions: for IC50: read-out: IC50 FOR PRMT1
# T1 construct: made in house
# Experimental: as §1
# (§4) The PRMT1 methylation assay was performed under the following conditions in a final well volume of 100 μL: 2.5 mM HEPES (pH=7.0), 25 mM NaCl, 25 μM EDTA, 50 μM TCEP, 0.01% Triton X-100, 5 μM SAHH, 0.1 μM PRMT1, 10 μM AdoMet, and 10 μM ThioGlo4. […] The fluorescence signal was monitored on a BMG CLARIOstar microplate reader with excitation at 400 nm and emission at 465 nm for 15 min. Data were processed using GraphPad Prism software 8.0.
# as §3
# as §4, with “A fluorescence-based SAHH-coupled assay was applied to determine the inhibition activity of all synthesized compounds on PRMT 1 and 3. The PRMT1” for “The PRMT1”, “software 8.0. All experiments were performed in duplicate.” for “software 8.0.”
# PRMT6 = PRMT6 (Homo sapiens, UniProt Q96LA8); assay: radioactive assay (Reaction Biology Corp.), inhibition of PRMT6
# Experimental: as §3
# (§5) The PRMT 4, 6 and 8 methylation assays were performed by Reaction Biology corp.
# PRMT4 = biological target: T2, PRMT4 (Homo sapiens, UniProt Q86X55); assay: radioactive assay (Reaction Biology Corp.), inhibition of PRMT4
# T2 sequence (Q86X55 1-608): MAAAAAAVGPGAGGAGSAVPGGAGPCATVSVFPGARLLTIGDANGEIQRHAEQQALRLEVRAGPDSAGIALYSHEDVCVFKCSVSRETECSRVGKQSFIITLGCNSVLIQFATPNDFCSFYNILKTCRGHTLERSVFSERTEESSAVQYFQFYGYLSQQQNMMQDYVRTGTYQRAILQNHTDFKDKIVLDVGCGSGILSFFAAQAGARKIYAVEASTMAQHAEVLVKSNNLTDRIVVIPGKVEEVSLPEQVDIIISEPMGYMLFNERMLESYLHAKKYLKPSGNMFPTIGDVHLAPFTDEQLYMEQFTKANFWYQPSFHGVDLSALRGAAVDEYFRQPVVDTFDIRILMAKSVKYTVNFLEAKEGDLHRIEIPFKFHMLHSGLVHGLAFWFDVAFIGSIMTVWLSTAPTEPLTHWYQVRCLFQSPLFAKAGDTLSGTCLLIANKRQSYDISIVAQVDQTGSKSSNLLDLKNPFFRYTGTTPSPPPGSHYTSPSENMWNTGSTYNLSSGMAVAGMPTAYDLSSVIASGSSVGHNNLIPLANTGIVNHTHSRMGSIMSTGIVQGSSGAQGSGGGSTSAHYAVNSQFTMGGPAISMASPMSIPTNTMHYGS
# Experimental: as §3, §5
# PRMT8 = PRMT8 (Homo sapiens, UniProt Q9NR22); assay: radioactive assay (Reaction Biology Corp.), inhibition of PRMT8
# Experimental: as §3, §5
# Chain of PRMT6 (Q96LA8 whole entry, species assumed): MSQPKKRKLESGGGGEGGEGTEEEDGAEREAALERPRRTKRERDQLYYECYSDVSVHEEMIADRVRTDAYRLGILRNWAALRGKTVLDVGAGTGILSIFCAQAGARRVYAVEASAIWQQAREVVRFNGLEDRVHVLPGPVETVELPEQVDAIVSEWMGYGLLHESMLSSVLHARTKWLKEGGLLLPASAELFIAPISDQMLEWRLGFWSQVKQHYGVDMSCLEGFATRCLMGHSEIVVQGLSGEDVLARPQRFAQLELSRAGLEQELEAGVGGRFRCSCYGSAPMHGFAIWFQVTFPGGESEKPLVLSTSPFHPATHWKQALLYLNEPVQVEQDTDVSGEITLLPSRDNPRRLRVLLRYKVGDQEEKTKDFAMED
# T1 sequence (Q99873 whole entry, species assumed): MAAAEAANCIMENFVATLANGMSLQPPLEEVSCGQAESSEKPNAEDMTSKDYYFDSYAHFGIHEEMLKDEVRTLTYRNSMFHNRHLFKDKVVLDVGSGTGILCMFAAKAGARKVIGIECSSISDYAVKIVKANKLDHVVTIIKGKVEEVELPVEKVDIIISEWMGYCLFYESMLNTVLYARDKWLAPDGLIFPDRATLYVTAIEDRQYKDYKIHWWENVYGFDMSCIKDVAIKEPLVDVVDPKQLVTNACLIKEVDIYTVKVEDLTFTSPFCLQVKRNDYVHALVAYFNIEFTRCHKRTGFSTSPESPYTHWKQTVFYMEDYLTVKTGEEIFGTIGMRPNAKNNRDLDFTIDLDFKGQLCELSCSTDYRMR
# Chain of PRMT3 (O60678 211-531): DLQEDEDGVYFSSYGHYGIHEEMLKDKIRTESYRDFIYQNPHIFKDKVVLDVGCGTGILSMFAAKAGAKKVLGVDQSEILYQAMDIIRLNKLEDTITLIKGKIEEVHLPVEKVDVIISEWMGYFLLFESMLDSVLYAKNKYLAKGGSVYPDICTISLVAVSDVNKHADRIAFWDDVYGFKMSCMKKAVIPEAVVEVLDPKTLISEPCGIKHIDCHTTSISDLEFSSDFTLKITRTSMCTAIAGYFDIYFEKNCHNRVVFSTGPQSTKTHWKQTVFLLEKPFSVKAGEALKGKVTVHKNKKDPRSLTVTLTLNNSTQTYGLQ
# Chain of PRMT8 (Q9NR22 whole entry, species assumed): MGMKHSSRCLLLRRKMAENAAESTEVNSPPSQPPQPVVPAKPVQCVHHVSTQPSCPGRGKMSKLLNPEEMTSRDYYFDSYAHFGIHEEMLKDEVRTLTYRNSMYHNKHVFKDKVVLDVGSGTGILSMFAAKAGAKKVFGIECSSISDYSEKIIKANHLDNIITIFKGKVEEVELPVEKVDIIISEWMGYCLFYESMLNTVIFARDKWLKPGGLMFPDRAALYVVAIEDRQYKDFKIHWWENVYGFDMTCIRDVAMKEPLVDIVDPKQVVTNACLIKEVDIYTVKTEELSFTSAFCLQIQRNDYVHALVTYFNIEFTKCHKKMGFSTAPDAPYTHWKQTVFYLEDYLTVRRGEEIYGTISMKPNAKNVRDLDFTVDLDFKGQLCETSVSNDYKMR
Compound,inhibition at 10 µM (PRMT3) [%],inhibition at 10 µM (PRMT1) [%],IC50 (PRMT1) [nM],inhibition at 10 µM (PRMT6) [%],inhibition at 10 µM (PRMT4) [%],inhibition at 10 µM (PRMT8) [%],PRMT6 inhibition (PRMT6; 10 μM)
Nc1ncnc2c1ncn2[C@@H]1O[C@H](CSCCCNCc2cccc(-c3cccc4cn[nH]c34)c2)[C@@H](O)[C@H]1O [Compound 10t],22,69,,87,99,72,
Nc1ncnc2c1ncn2[C@@H]1O[C@H](CSCCNCc2cccc(-c3ccc(O)cc3)c2)[C@@H](O)[C@H]1O [Compound 10b],1,19,,55,100,67,
Nc1ncnc2c1ncn2[C@@H]1O[C@H](CSCCCNCc2cccc(-c3ccc(F)c(O)c3)c2)[C@@H](O)[C@H]1O [Compound 10r],22,52,,74,95,72,
N=C(NCCCSC[C@H]1O[C@@H](n2cnc3c(N)ncnc32)[C@H](O)[C@@H]1O)Nc1cccc(-c2cccc([N+](=O)[O-])c2)c1 [Compound 6p],0,93,,98,100,100,
Nc1ncnc2c1ncn2[C@@H]1O[C@H](CSCCNCc2cccc(-c3ccc(C(F)(F)F)cc3)c2)[C@@H](O)[C@H]1O [Compound 10e],15,2,,57,99,67,
Nc1ncnc2c1ncn2[C@@H]1O[C@H](CSCCCNCc2cccc(-c3ccc(C(F)(F)F)cc3)c2)[C@@H](O)[C@H]1O [Compound 10o],24,71,,37,97,65,
Nc1ncnc2c1ncn2[C@@H]1O[C@H](CSCCNC(=O)NCc2ccc(-c3ccccc3O)cc2)[C@@H](O)[C@H]1O [Compound 8e],13,11,,-2,53,-2,
Nc1ncnc2c1ncn2[C@@H]1O[C@H](CSCCNC(=O)NCc2ccc3cnccc3c2)[C@@H](O)[C@H]1O [Compound 7e],8,6,,9,30,-2,
N=C(NCCCSC[C@H]1O[C@@H](n2cnc3c(N)ncnc32)[C@H](O)[C@@H]1O)Nc1cccc(-c2ccoc2)c1 [Compound 6i],46,95,,95,100,98,
Nc1ncnc2c1ncn2[C@@H]1O[C@H](CSCCNC(=O)NCc2ccc(-c3cn[nH]c3)cc2)[C@@H](O)[C@H]1O [Compound 8g],10,2,,5,19,5,
N=C(NCCCO)NCCCSC[C@H]1O[C@@H](n2cnc3c(NCCCc4ccccc4)ncnc32)[C@H](O)[C@@H]1O [Compound 1-92],10,64,590 ± 73,84,54,55,
Nc1ncnc2c1ncn2[C@@H]1O[C@H](CSCCCNCc2cccc(-c3ccc(O)cc3)c2)[C@@H](O)[C@H]1O [Compound 10n],21,57,,36,96,69,
Nc1ncnc2c1ncn2[C@@H]1O[C@H](CSCCCNC(=O)NCCCc2ccccc2)[C@@H](O)[C@H]1O [Compound 7q],5,18,,-6,62,16,

# Continued, values first:
inhibition at 10 µM (PRMT3) [%],inhibition at 10 µM (PRMT1) [%],IC50 (PRMT1) [nM],inhibition at 10 µM (PRMT6) [%],inhibition at 10 µM (PRMT4) [%],inhibition at 10 µM (PRMT8) [%],PRMT6 inhibition (PRMT6; 10 μM),Compound
13,89,1300 ± 66,79,37,74,,N=C(NCCCN)NCCCSC[C@H]1O[C@@H](n2cnc3c(NCCCc4ccccc4)ncnc32)[C@H](O)[C@@H]1O [Compound 19i]
3,16,,18,51,42,,Nc1ncnc2c1ncn2[C@@H]1O[C@H](CSCCOc2ccc(-c3ccc(F)c(O)c3)cc2)[C@@H](O)[C@H]1O [Compound 14d]
13,12,,8,1,21,,COc1cc2nc(-c3ccc(N)cc3)nc(NCCSC[C@H]3O[C@@H](n4cnc5c(N)ncnc54)[C@H](O)[C@@H]3O)c2cc1OC [Compound 12j]
8,10,,6,48,15,,Nc1ncnc2c1ncn2[C@@H]1O[C@H](CSCCOc2ccc(-c3ccncc3)cc2)[C@@H](O)[C@H]1O [Compound 14h]
4,2,,13,10,25,,COc1cc2nc(-c3cccc(O)c3)nc(NCCSC[C@H]3O[C@@H](n4cnc5c(N)ncnc54)[C@H](O)[C@@H]3O)c2cc1OC [Compound 12g]
6,3,,3,17,39,,Nc1ncnc2c1ncn2[C@@H]1O[C@H](CSCCOc2ccc(-c3ccoc3)cc2)[C@@H](O)[C@H]1O [Compound 14c]
10,2,,16,1,25,,COc1cc2nc(-c3ccoc3)nc(NCCSC[C@H]3O[C@@H](n4cnc5c(N)ncnc54)[C@H](O)[C@@H]3O)c2cc1OC [Compound 12d]
4,1,,85,69,23,selective inhibition to PRMT6,COc1cc2nc(-c3ccc(Cl)cc3)nc(NCCSC[C@H]3O[C@@H](n4cnc5c(N)ncnc54)[C@H](O)[C@@H]3O)c2cc1OC [Compound 12a]
13,86,1200 ± 52,73,23,69,,N=C(NCCCSC[C@H]1O[C@@H](n2cnc3c(NCCCc4ccccc4)ncnc32)[C@H](O)[C@@H]1O)NC1CC1 [Compound 19b]
10,89,750 ± 46,88,44,79,,N=C(NCCCSC[C@H]1O[C@@H](n2cnc3c(NCCCc4ccccc4)ncnc32)[C@H](O)[C@@H]1O)NC1CCCCC1 [Compound 19e]
